In the kinase profiling compilation of Christmann-Franck et al. (2016):

Legend:
Assay in all cases: KINOMEscan competition binding
HIPK1 (human) = HIPK1 (human) (UniProt Q86Z02); settings: compound 1.0 µM
NEK9 (human) = NEK9 (human) (UniProt Q8TD19); settings: compound 1.0 µM
ULK2 (human) = ULK2 (human) (UniProt Q8IYT8); settings: compound 1.0 µM
[1] = system: FLT3 (human), P36888 [D835H]; settings: compound 1.0 µM
FER (human) = FER (human) (UniProt P16591); settings: compound 1.0 µM
ROCK2 (human) = ROCK2 (human) (UniProt O75116); settings: compound 1.0 µM
CDC42BPB (human) = CDC42BPB (human) (UniProt Q9Y5S2); settings: compound 1.0 µM
RPS6KA2 KD2 (human) = RPS6KA2 KD2 (human) (UniProt Q15349); settings: compound 1.0 µM
BRAF (human) = BRAF (human) (UniProt P15056); settings: compound 1.0 µM
Chain of BRAF (human) (P15056 whole entry, looked up): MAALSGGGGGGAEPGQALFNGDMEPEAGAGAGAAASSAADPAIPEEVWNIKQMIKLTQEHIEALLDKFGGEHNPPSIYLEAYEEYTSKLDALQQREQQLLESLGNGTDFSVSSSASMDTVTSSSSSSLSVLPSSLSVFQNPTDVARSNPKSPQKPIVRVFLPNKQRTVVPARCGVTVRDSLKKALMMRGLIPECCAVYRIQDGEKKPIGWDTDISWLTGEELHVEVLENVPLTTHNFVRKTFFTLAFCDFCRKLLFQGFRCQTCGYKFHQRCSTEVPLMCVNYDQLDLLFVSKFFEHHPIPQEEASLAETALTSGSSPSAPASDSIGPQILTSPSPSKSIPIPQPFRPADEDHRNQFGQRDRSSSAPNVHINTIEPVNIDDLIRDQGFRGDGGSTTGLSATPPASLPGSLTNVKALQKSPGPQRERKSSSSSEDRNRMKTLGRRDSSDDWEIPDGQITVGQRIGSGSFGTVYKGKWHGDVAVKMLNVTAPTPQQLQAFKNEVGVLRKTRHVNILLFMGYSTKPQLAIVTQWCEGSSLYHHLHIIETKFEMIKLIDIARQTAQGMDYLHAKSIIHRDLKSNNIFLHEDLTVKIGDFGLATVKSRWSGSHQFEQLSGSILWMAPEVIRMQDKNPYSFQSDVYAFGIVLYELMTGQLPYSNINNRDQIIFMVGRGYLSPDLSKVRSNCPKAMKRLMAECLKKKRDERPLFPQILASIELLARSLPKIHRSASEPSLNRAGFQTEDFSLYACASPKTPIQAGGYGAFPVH

[2] = system: PIK3CA (human), P42336 [H1047Y]; settings: compound 1.0 µM
GAK (human) = GAK (human) (UniProt O14976); settings: compound 1.0 µM
NIM1 (human) = NIM1 (human) (UniProt Q8IY84); settings: compound 1.0 µM
STK4 (human) = STK4 (human) (UniProt Q13043); settings: compound 1.0 µM
CSNK1G2 (human) = CSNK1G2 (human) (UniProt P78368); settings: compound 1.0 µM
HIPK3 (human) = HIPK3 (human) (UniProt Q9H422); settings: compound 1.0 µM
IKBKE (human) = IKBKE (human) (UniProt Q14164); settings: compound 1.0 µM
STK17A (human) = STK17A (human) (UniProt Q9UEE5)
Chain of STK17A (human) (Q9UEE5 whole entry, looked up): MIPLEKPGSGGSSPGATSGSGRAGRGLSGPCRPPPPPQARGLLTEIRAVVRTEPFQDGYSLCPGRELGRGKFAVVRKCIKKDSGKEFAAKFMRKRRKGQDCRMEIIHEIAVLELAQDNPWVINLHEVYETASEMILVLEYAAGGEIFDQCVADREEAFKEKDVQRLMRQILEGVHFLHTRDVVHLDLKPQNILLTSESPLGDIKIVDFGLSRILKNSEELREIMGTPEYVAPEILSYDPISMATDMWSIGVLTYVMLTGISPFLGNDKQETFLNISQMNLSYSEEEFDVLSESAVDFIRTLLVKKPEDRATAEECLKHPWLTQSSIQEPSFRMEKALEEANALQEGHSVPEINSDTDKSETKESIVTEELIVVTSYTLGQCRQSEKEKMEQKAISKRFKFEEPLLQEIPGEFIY

ERBB2 (human) = ERBB2 (human) (UniProt P04626); settings: compound 1.0 µM
IGF1R (human) = IGF1R (human) (UniProt P08069); settings: compound 1.0 µM
Chain of IGF1R (human) (P08069 whole entry, looked up): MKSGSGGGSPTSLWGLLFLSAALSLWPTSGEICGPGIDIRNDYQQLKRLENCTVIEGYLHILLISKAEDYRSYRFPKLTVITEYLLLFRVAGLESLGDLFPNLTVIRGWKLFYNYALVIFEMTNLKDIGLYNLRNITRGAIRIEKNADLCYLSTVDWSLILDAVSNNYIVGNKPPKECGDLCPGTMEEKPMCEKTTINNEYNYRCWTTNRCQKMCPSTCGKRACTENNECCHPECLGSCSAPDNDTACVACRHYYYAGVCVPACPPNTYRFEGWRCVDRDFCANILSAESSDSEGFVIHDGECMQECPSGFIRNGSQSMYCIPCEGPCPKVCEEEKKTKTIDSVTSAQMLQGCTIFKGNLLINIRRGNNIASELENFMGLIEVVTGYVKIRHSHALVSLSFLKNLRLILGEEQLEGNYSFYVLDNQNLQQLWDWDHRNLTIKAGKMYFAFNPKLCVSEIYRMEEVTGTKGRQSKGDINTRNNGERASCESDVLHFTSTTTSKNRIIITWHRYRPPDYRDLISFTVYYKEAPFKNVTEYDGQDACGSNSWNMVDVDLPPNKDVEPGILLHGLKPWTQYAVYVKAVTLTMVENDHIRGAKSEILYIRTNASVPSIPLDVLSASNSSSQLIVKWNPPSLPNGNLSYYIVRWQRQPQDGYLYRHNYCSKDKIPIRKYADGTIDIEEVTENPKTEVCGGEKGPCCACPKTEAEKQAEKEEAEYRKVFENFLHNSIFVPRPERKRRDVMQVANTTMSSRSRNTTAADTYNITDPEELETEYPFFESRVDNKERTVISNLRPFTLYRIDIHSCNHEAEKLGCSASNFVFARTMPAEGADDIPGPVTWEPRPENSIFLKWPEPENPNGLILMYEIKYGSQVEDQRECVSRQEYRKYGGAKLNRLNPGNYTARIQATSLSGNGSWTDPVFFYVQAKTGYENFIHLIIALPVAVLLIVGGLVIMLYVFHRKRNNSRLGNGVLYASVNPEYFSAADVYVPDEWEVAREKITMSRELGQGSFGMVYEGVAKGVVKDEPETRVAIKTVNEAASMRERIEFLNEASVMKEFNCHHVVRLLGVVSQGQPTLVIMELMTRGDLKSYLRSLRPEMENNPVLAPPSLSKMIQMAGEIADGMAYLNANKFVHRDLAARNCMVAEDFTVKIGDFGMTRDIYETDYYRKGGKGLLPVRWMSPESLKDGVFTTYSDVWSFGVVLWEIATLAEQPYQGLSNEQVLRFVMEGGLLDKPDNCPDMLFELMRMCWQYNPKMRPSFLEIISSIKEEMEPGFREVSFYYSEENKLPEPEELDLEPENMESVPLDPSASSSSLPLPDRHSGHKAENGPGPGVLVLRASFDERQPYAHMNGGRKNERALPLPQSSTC

PAK4 (human) = PAK4 (human) (UniProt O96013); settings: compound 1.0 µM
RPS6KA2 KD1 (human) = RPS6KA2 KD1 (human) (UniProt Q15349); settings: compound 1.0 µM
STK36 (human) = STK36 (human) (UniProt Q9NRP7); settings: compound 1.0 µM
CDK8 (human) = CDK8 (human) (UniProt P49336); settings: compound 1.0 µM
KIT (human) = KIT (human) (UniProt P10721); settings: compound 1.0 µM
MAP2K6 (human) = MAP2K6 (human) (UniProt P52564); settings: compound 1.0 µM
PIK3CA (human) = PIK3CA (human) (UniProt P42336); settings: compound 1.0 µM
CSNK1G1 (human) = CSNK1G1 (human) (UniProt Q9HCP0); settings: compound 1.0 µM
CDK14 (human) = CDK14 (human) (UniProt O94921); settings: compound 1.0 µM
ABL2 (human) = ABL2 (human) (UniProt P42684); settings: compound 1.0 µM
CAMK4 (human) = CAMK4 (human) (UniProt Q16566); settings: compound 1.0 µM
RPS6KA3 KD1 (human) = RPS6KA3 KD1 (human) (UniProt P51812); settings: compound 1.0 µM
[3] = target: JAK2 JH1 catalytic (human) (UniProt O60674); settings: compound 1.0 µM
PAK6 (human) = PAK6 (human) (UniProt Q9NQU5); settings: compound 1.0 µM
INSRR (human) = INSRR (human) (UniProt P14616); settings: compound 1.0 µM
CSNK1E (human) = CSNK1E (human) (UniProt P49674); settings: compound 1.0 µM
STK38 (human) = STK38 (human) (UniProt Q15208); settings: compound 1.0 µM
Chain of STK38 (human) (Q15208 whole entry, looked up): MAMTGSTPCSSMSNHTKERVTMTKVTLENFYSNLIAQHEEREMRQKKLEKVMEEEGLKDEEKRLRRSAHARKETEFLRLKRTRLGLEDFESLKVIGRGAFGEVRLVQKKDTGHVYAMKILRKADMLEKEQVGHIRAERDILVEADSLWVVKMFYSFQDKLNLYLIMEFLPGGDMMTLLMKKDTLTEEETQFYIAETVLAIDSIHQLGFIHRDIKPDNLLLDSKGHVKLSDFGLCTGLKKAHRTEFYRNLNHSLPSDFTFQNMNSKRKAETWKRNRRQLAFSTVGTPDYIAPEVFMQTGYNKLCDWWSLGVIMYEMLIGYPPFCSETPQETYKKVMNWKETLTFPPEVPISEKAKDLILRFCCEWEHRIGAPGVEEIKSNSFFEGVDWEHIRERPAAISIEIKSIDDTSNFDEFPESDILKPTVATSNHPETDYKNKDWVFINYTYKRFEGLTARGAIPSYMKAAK

SLK (human) = SLK (human) (UniProt Q9H2G2); settings: compound 1.0 µM
MAP3K12 (human) = MAP3K12 (human) (UniProt Q12852); settings: compound 1.0 µM
Chain of MAP3K12 (human) (Q12852 whole entry, looked up): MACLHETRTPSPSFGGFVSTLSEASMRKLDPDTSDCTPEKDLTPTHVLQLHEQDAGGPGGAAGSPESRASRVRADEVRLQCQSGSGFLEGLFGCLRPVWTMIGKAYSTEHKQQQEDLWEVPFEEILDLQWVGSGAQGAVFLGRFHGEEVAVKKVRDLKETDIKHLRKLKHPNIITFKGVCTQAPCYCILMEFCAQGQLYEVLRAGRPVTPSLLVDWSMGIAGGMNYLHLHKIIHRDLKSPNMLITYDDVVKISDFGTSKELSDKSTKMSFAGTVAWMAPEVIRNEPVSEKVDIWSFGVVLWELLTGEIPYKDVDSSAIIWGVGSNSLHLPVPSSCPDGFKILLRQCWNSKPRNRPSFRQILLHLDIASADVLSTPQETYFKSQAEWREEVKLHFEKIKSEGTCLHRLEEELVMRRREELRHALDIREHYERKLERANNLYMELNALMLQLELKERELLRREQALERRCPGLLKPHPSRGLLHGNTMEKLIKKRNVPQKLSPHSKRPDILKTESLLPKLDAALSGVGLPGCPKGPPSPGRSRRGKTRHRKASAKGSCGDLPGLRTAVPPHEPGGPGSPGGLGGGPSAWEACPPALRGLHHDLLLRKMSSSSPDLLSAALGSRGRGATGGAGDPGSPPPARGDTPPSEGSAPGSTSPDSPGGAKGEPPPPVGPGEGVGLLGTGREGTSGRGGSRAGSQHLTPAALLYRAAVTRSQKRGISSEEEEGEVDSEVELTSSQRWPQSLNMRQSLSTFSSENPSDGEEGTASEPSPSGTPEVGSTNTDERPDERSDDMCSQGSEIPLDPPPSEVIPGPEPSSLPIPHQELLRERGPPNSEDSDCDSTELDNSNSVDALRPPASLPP

CAMKK1 (human) = CAMKK1 (human) (UniProt Q8N5S9); settings: compound 1.0 µM
MAP2K4 (human) = MAP2K4 (human) (UniProt P45985); settings: compound 1.0 µM
STK16 (human) = STK16 (human) (UniProt O75716); settings: compound 1.0 µM
PRKCH (human) = PRKCH (human) (UniProt P24723); settings: compound 1.0 µM

Chain of NEK9 (human) (Q8TD19 whole entry, looked up): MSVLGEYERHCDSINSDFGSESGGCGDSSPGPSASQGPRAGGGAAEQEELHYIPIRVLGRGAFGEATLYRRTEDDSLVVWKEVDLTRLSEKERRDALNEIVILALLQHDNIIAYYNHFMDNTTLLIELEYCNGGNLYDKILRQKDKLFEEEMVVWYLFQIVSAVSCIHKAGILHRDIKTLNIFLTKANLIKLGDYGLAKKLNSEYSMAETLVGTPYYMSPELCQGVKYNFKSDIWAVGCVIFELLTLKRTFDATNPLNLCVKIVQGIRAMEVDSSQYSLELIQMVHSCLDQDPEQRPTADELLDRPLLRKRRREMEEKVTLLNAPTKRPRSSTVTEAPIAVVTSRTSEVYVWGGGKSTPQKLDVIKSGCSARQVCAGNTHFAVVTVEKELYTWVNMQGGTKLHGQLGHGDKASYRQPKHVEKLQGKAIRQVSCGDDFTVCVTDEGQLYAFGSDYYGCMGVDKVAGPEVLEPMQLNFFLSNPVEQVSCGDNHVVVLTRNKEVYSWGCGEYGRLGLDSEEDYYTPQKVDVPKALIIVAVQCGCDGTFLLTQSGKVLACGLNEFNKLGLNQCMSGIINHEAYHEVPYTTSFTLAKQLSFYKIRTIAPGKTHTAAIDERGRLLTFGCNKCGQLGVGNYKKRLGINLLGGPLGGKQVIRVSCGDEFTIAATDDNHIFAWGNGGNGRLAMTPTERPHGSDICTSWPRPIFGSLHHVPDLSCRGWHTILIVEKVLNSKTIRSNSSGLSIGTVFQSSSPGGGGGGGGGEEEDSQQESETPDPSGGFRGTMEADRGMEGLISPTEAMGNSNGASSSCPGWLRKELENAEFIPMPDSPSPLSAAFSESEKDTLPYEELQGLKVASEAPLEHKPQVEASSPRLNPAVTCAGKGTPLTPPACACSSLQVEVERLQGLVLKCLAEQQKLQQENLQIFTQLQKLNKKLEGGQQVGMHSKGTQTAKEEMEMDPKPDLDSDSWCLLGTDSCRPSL

## CN(C)C/C=C/C(=O)Nc1cccc(C(=O)Nc2ccc(Nc3nccc(-c4cccnc4)n3)cc2)c1
HIPK1 (human)
  kinase still bound, per cent of control: 3.6%
NEK9 (human)
  kinase still bound, per cent of control: 48%
ULK2 (human)
  kinase still bound, per cent of control: 86%
[1]
  kinase still bound, per cent of control: 29%
FER (human)
  kinase still bound, per cent of control: 100%
ROCK2 (human)
  kinase still bound, per cent of control: 16%
CDC42BPB (human)
  kinase still bound, per cent of control: 93%
RPS6KA2 KD2 (human)
  kinase still bound, per cent of control: 92%
BRAF (human)
  kinase still bound, per cent of control: 95%
[2]
  kinase still bound, per cent of control: 100%
GAK (human)
  kinase still bound, per cent of control: 33%
NIM1 (human)
  kinase still bound, per cent of control: 100%
STK4 (human)
  kinase still bound, per cent of control: 45%
CSNK1G2 (human)
  kinase still bound, per cent of control: 12%
HIPK3 (human)
  kinase still bound, per cent of control: 5.7%
IKBKE (human)
  kinase still bound, per cent of control: 98%
STK17A (human)
  Kd: 100 nM
STK17A (human); compound 1.0 µM
  kinase still bound, per cent of control: 1.3%
ERBB2 (human)
  kinase still bound, per cent of control: 92%
IGF1R (human)
  kinase still bound, per cent of control: 100%
PAK4 (human)
  kinase still bound, per cent of control: 79%
RPS6KA2 KD1 (human)
  kinase still bound, per cent of control: 100%
STK36 (human)
  kinase still bound, per cent of control: 30%
CDK8 (human)
  kinase still bound, per cent of control: 68%
KIT (human)
  kinase still bound, per cent of control: 2.4%
MAP2K6 (human)
  kinase still bound, per cent of control: 53%
PIK3CA (human)
  kinase still bound, per cent of control: 75%
CSNK1G1 (human)
  kinase still bound, per cent of control: 69%
CDK14 (human)
  kinase still bound, per cent of control: 53%
ABL2 (human)
  kinase still bound, per cent of control: 79%
CAMK4 (human)
  kinase still bound, per cent of control: 100%
RPS6KA3 KD1 (human)
  kinase still bound, per cent of control: 100%
[3]
  kinase still bound, per cent of control: 50%
PAK6 (human)
  kinase still bound, per cent of control: 87%
INSRR (human)
  kinase still bound, per cent of control: 100%
CSNK1E (human)
  kinase still bound, per cent of control: 6.8%
STK38 (human)
  kinase still bound, per cent of control: 100%
SLK (human)
  kinase still bound, per cent of control: 100%
MAP3K12 (human)
  kinase still bound, per cent of control: 72%
CAMKK1 (human)
  kinase still bound, per cent of control: 64%
MAP2K4 (human)
  kinase still bound, per cent of control: 78%
STK16 (human)
  kinase still bound, per cent of control: 15%
PRKCH (human)
  kinase still bound, per cent of control: 84%
